One experiment concerns H358. In words: Anti-proliferation 2D CTG test (H358). In kind it is cell-based. The conditions noted are these: H358 cells, 1500 cells/well, 5 days incubation with compound, CTG readout. On the procedure: (§1) When the cell confluency was 80%, the cells were isolated with 0.25% trypsin. The isolated cells were resuspended in 5 mL of fresh cell culture medium and centrifuged to collect the cells. The number of cells were counted at the same time. Then, the cells were suspended in a culture medium at a moderate concentration. The cells were placed into a 96-well plate with 1500 cells/well for H358 and 500 cells/well for MIAPACA-2. The 96-well plate was placed in an incubator at 37° C. and incubated overnight.
(§2) 2) Day 1: processing of compound
(§3) A 2 mM stock solution was serially diluted at 10 points at a ratio of 1:3. 5× culture medium containing the compound was transferred to the corresponding wells of 96 wells. The final peak concentration of the compound was […], and the final concentration of DMSO was 0.5%. The 96-well plate was placed in the incubator at 37° C. and incubated for 5 days.
(§4) 3) Baseline reading. 4) Day 6: reading of signals
(§5) A detection reagent (CTG) was added at 50 μL/well, and the signals were read in an Envision instrument.
(§6) The percentage of inhibition ([…]) at each compound concentration was calculated based on the signals from the HPE and ZPE control wells contained in each assay plate and the fluorescence signals from individual compound wells. The inhibition rate in the ZPE control wells containing the enzyme and substrate was 0%, and the inhibition rate in the HPE control wells only containing the substrate was […]. By testing the compound in terms of numeric concentration and inhibition percentage, the compound concentration required for […] inhibition (IC50) was determined using a four-parameter logarithmic dose-response equation. The endpoint value (IC50) of the reference compound was evaluated in each experiment as a quality control measure. If the endpoint value was within three times the expected value, the experiment was considered acceptable.

The test system of another experiment is MIA PaCa-2. In words: Anti-proliferation 2D CTG test (MIA PaCa-2). As to conditions: MIAPACA-2 cells, 500 cells/well, 5 days incubation with compound, CTG readout. Format: cell-based. On the procedure:
as §1, §2, §3, §4, §5, §6

The mark [1] stands for this setting: Homo sapiens, MIA PaCa-2, 120 h.

Usually IC50 stands for the midpoint of a concentration-inhibition curve. As for `C=CC(=O)N1CCN(c2nc(=O)n3c4nc(c(F)cc24)-c2c(F)cccc2OCC(O)C(OC)c2ccnc(C(C)C)c2-3)[C@@H](C)C1` (stereo partly drawn) [Example 42, (S)-2^4-((S)-4-acryloyl-2-methylpiperazin-1-yl)-7-methoxy-2^6,3^6-difluoro-6-hydroxy-1^2-isopropyl-2^1,2^2-dihydro-4-oxa-2(1,7)-pyrido[2,3-d]pyrimidina-1(3,4)-pyridina-3(1,2)-benzocycloheptane-2^2-one], the IC50 in the experiment with H358 came to 977 nM; in the experiment with MIA PaCa-2, 669 nM.

Consider `C=CC(=O)N1CCN(c2nc(=O)n3c4nc(c(F)cc24)-c2c(F)cccc2OCC(=O)C(OCC)c2ccnc(C(C)C)c2-3)[C@@H](C)C1` (some centres unmarked) [Example 22], for which the IC50 in the experiment with H358 (Homo sapiens, NCI-H358, 120 h) turned out to be 14 nM; in the experiment with MIA PaCa-2 (setting [1]), 7 nM.

As to `C=CC(=O)N1CCN(c2nc(=O)n3c4nc(c(F)cc24)-c2c(F)cccc2OCC(O)C(OC(=O)C2CC2)c2ccnc(C(C)C)c2-3)[C@@H](C)C1` (stereo partly drawn) [Example 10, 2^4-((S)-4-acryloyl-2-methylpiperazin-1-yl)-2^6,3^6-difluoro-6-hydroxy-1^2-isopropyl-2^2-oxo-2^1,2^2-dihydro-4-oxa-2(1,7)-pyrido[2,3-d]pyrimidina-1(3,4)-pyridina-3(1,2)-benzocycloheptane-7-yl cyclopropanecarboxylate], the IC50 in the experiment on H358 (Homo sapiens, NCI-H358, 120 h) is 5 nM; with MIA PaCa-2 (setting [1]) it was 4 nM.

Consider `C=CC(=O)N1CCN(c2nc(=O)n3c4nc(c(F)cc24)-c2c(F)cccc2OCC(OC)C(O)c2ccnc(C(C)C)c2-3)[C@@H](C)C1` (stereo partly drawn) [Example 27, 24-((S)-4-acryloyl-2-methylpiperazin-1-yl)-6-methoxy-2^6,3^6-difluoro-7-hydroxy-1^2-isopropyl-2^1,2^2-dihydro-4-oxa-2(1,7)-pyrido[2,3-d]pyrimidina-1(3,4)-pyridina-3(1,2)-benzocycloheptane-2^2-one], for which the IC50 was determined as 9 nM in the experiment on H358 (Homo sapiens, NCI-H358, 120 h) and 4 nM with MIA PaCa-2 (setting [1]).

Consider `C=CC(=O)N1CCN(c2nc(=O)n3c4nc(c(F)cc24)-c2c(F)cccc2OCC(OC(C)C)C(O)c2ccnc(C(C)C)c2-3)[C@@H](C)C1` (stereo partly drawn) [Example 55, (R)-2^4-((S)-4-acryloyl-2-methylpiperazin-1-yl)-6-isopropoxy-2^6,3^6-difluoro-7-hydroxy-1^2-isopropyl-2^1,2^2-dihydro-4-oxa-2(1,7)-pyrido[2,3-d]pyrimidina-1(3,4)-pyridina-3(1,2)-benzocycloheptane-2^2-one], for which the IC50 amounted to 8 nM in the experiment on H358 and 7 nM in the experiment with MIA PaCa-2.

Regarding `C=CC(=O)N1CCN(c2nc(=O)n3c4nc(c(F)cc24)-c2c(F)cccc2OCC(O)C(OC)c2ccnc(C(C)C)c2-3)[C@@H](C)C1` (stereo partly drawn) [Example 26, 2^4-((S)-4-acryloyl-2-methylpiperazin-1-yl)-7-methoxy-2^6,3^6-difluoro-6-hydroxy-1^2-isopropyl-2^1,2^2-dihydro-4-oxa-2(1,7)-pyrido[2,3-d]pyrimidina-1(3,4)-pyridina-3(1,2)-benzocycloheptane-2^2-one], the concentration for half-maximal inhibition (IC50) in the experiment on H358 was determined as 2 nM; with MIA PaCa-2, 1 nM.

In the case of `C=CC(=O)N1CCN(c2nc(=O)n3c4nc(c(F)cc24)-c2c(F)cccc2OCC(O)C(O)c2ccnc(C(C)C)c2-3)[C@@H](C)C1` (stereo partly drawn) [Example 1-S, (S)-2^4-((S)-4-acryloyl-2-methylpiperazin-1-yl)-2^6,3^6-difluoro-6,7-dihydroxy-1^2-isopropyl-2^1,2^2-dihydro-4-oxa-2(1,7)-pyrido[2,3-d]pyrimidina-1(3,4)-pyridina-3(1,2)-benzocycloheptane-2^2-one], the IC50 worked out at 931 nM in the experiment with H358 and 100 nM with MIA PaCa-2.

As for `C=CC(=O)N1C[C@H](C)N(c2nc(=O)n3c4nc(c(F)cc24)-c2c(ccc(Cl)c2F)OCC(O)C(OCC)c2ccnc(C(C)C)c2-3)C[C@H]1C` (stereo partly drawn) [Example 76, (R)-2^4-((2S,5R)-4-acryloyl-2,5-dimethylpiperazin-1-yl)-3^5-chloro-7-ethoxy-2^6,3^6-difluoro-6-hydroxy-1^2-isopropyl-2^1,2^2-dihydro-4-oxa-2(1,7)-pyrido[2,3-d]pyrimidina-1(3,4)-pyridina-3(1,2)-benzocycloheptane-2^2-one], the IC50 with H358 and in the experiment on MIA PaCa-2 was 4 nM in each case.

For `C=CC(=O)N1CCN(c2nc(=O)n3c4nc(c(F)cc24)-c2c(ccc(Cl)c2F)OCC(OCC)C(O)c2ccnc(C(C)C)c2-3)[C@@H](C)C1` (stereo partly drawn) [Example 75, (R)-2^4-((S)-4-acryloyl-2-methylpiperazin-1-yl)-3^5-chloro-6-ethoxy-2^6,3^6-difluoro-7-hydroxy-1^2-isopropyl-2^1,2^2-dihydro-4-oxa-2(1,7)-pyrido[2,3-d]pyrimidina-1(3,4)-pyridina-3(1,2)-benzocycloheptane-2^2-one], the half-maximal inhibitory concentration (IC50) turned out to be 3 nM with H358 and 6 nM in the experiment on MIA PaCa-2.

With `C=CC(=O)N1CCN(c2nc(=O)n3c4nc(c(F)cc24)-c2c(F)cccc2OCC(OC(C)=O)C(OC(C)=O)c2ccnc(C(C)C)c2-3)[C@@H](C)C1` (stereo partly drawn) [Example 18-S, (S)-2^4-((S)-4-acryloyl-2-methylpiperazin-1-yl)-2^6,3^6-difluoro-1^2-isopropyl-2^2-oxo-2^1,2^2-dihydro-4-oxa-2(1,7)-pyrido[2,3-d]pyrimidina-1(3,4)-pyridina-3(1,2)-benzocycloheptane-6,7-diyl diacetate], the 50% inhibitory concentration (IC50) was 351 nM in the experiment on H358 and 266 nM in the experiment with MIA PaCa-2.

In the case of `C=CC(=O)N1CCN(c2nc(=O)n3c4nc(c(F)cc24)-c2c(ccc(Cl)c2F)OCC(OCC)C(O)c2ccnc(C(C)C)c2-3)[C@@H](C)C1` (stereo partly drawn) [Example 69, 2^4-((S)-4-acryloyl-2-methylpiperazin-1-yl)-3^5-chloro-6-ethoxy-2^6,3^6-difluoro-7-hydroxy-1^2-isopropyl-2^1,2^2-dihydro-4-oxa-2(1,7)-pyrido[2,3-d]pyrimidina-1(3,4)-pyridina-3(1,2)-benzocycloheptane-2^2-one], the IC50 in the experiment on H358 worked out at 31 nM; in the experiment with MIA PaCa-2 it was 26 nM.

On to `C=CC(=O)N1CCN(c2nc(=O)n3c4nc(c(F)cc24)-c2c(F)cccc2OCC(OCC(F)F)C(O)c2ccnc(C(C)C)c2-3)[C@@H](C)C1` (stereo partly drawn) [Example 53, (R)-2^4-((S)-4-acryloyl-2-methylpiperazin-1-yl)-6-(2,2-difluoroethoxy)-2^6,3^6-difluoro-7-hydroxy-1^2-isopropyl-2^1,2^2-dihydro-4-oxa-2(1,7)-pyrido[2,3-d]pyrimidina-1(3,4)-pyridina-3(1,2)-benzocycloheptane-2^2-one], for which the IC50 in the experiment on H358 worked out at 17 nM; with MIA PaCa-2, 16 nM.

In the case of `C=CC(=O)N1CCN(c2nc(=O)n3c4nc(c(F)cc24)-c2c(F)cccc2OCC(OCC)C(O)c2ccnc(C(C)C)c2-3)[C@@H](C)C1` (stereo partly drawn) [Example 29, 2^4-((S)-4-acryloyl-2-methylpiperazin-1-yl)-6-ethoxy-2^6,3^6-difluoro-7-hydroxy-1^2-isopropyl-2^1,2^2-dihydro-4-oxa-2(1,7)-pyrido[2,3-d]pyrimidina-1(3,4)-pyridina-3(1,2)-benzocycloheptane-2^2-one], the IC50 in the experiment on H358 and in the experiment on MIA PaCa-2 was 6 nM throughout.

For `C=CC(=O)N1C[C@H](C)N(c2nc(=O)n3c4nc(c(F)cc24)-c2c(F)cccc2OCC(O)C(OCC)c2ccnc(C(C)C)c2-3)C[C@H]1C` (stereo partly drawn) [Example 58, (S)-2^4-((2S,5R)-4-acryloyl-2,5-dimethylpiperazin-1-yl)-7-ethoxy-2^6,3^6-difluoro-6-hydroxy-1^2-isopropyl-2^1,2^2-dihydro-4-oxa-2(1,7)-pyrido[2,3-d]pyrimidina-1(3,4)-pyridina-3(1,2)-benzocycloheptane-2^2-one], the half-inhibitory concentration (IC50) was 461 nM with H358 and 314 nM in the experiment with MIA PaCa-2.

As for `C=CC(=O)N1CCN(c2nc(=O)n3c4nc(c(F)cc24)-c2c(F)cccc2OCC(OC(C)=O)C(OC(C)=O)c2ccnc(C(C)C)c2-3)[C@@H](C)C1` (stereo partly drawn) [Example 18-R, (R)-2^4-((S)-4-acryloyl-2-methylpiperazin-1-yl)-2^6,3^6-difluoro-1^2-isopropyl-2^2-oxo-2^1,2^2-dihydro-4-oxa-2(1,7)-pyrido[2,3-d]pyrimidina-1(3,4)-pyridina-3(1,2)-benzocycloheptane-6,7-diyl diacetate], the IC50 in the experiment with H358 worked out at 16 nM; in the experiment with MIA PaCa-2 it was 15 nM.

For `C=CC(=O)N1CCN(c2nc(=O)n3c4nc(c(F)cc24)-c2c(F)cccc2OCC(OCC2CC2)C(O)c2ccnc(C(C)C)c2-3)[C@@H](C)C1` (stereo partly drawn) [Example 49, (R)-2^4-((S)-4-acryloyl-2-methylpiperazin-1-yl)-6-(cyclopropylmethoxy)-2^6,3^6-difluoro-7-hydroxy-1^2-isopropyl-2^1,2^2-dihydro-4-oxa-2(1,7)-pyrido[2,3-d]pyrimidina-1(3,4)-pyridina-3(1,2)-benzocycloheptane-2^2-one], the IC50 in the experiment on H358 stood at 7 nM; in the experiment with MIA PaCa-2, 6 nM.

These data come from patent US20240101573A1, “MACROCYCLIC K-RAS G12C INHIBITOR, PREPARATION METHOD THEREFOR AND USE THEREOF” (Abbisko Therapeutics Co., Ltd., priority 2020, published 2024).
